We go through two molecules from patent US20230381249A1, “PROBIOTIC STRAIN FOR COUNTERING CARIES PATHOGENS” (The Governing Council of the University of Toronto, priority 2022, published 2023).

For the assay, the system named is S. mutans S125 biofilms. In words: Static microtiter plate biofilm killing assay, mono-species. It is filed as cell-based, Streptococcus mutans. Particulars: for Biofilm cells killed: 24-h-old S. mutans S125 biofilm, strains 10^7 CFU/ml, chlorhexidine 10X MIC. On the procedure: Static biofilms of S. mutons were developed on polystyrene microtiter plates by inoculating 300 μl of BHI medium with 10 μl (10^6 CFU/ml) of S. mutons S125 from an overnight culture. After 24 h of growth, the planktonic phase was carefully removed, and fresh bacteriocin-producing medium (BAC7, BAC8) containing chlorhexidine (10×MIC), BLIS M18® (10^7 CFU/ml), BLIS K12® (10^7 CFU/ml) or VAR6 (10^7 CFU/ml) was overlayed onto established biofilms and the plates were incubated for 24 h at 37° C. The upper phase was then removed, and the biofilms were washed with sterile phosphate-buffered saline (PBS, pH 7.2) and dislodged by gentle scraping using sterile pipette tips. Biofilm cells were serially diluted and plated on BHI-erythromycin agar plates. Colonies of S. mutons were counted after 48 h of incubation at 37° C. in air with 5% CO2. All assays were performed in triplicate from three independent cultures. For the fungal-bacterial assay, biofilms were developed in Yeast extract-Peptone-Glycerol (YPG) medium and using a mixture of S. mutons/Candida albicans at a ratio of 1:1. For the dental plaque assay, biofilms were developed in BHI broth and using BHI plaque suspension supplemented with S. mutons (approx. 10^5 CFU/ml).

Consider `[H]/N=C(\N/C(=N/[H])NCCCCCCNC(=N)NC(=N)Nc1ccc(Cl)cc1)Nc1ccc(Cl)cc1` [chlorhexidine], for which the Biofilm cells killed runs as follows: (24 h treatment in BAC7) 91.6%±3.29; (24 h treatment in BAC8) 90.1%±2.89.

B1: SalE4: Multipeptide lantibiotic bacteriocin of VAR6 composed of Pep1, Pep2, Pep3 and Pep4 (SEQ ID NOs 5-8) (protein, listed as Streptococcus salivarius)
chain 1: MAKNTSRPEIDSLSFEVENQELSGKSGSGWFTAVQLTLAGRCGRWFTGSFECTTNNVKCG
chain 2: MRKNNNRKEIDTLDFEVKNQELSGKSGSGWFTAVQLTLAGRCGRWFTGSYECTTNNVKCG
chain 3: MKSKKVNTEIDTLEFEIDNQELNGTSGSGWWYTAFKMTLAGRCGLCFTCSYECTTNNVHC
chain 4: MKQDNFEIDSLDYEINSQELNGKSAAGWSTAVRLTVQGRCGWWFTHSYECTSPNVRCG
modifications: lantibiotic post-translational modifications
Take B1: the “Killing of S. mutans and inhibition of S. mutans biofilm growth” value (BAC7 and BAC8 medium, and in situ in the mouth of an individual) is “kill S. mutans, and inhibit the growth of S. mutans biofilms”.
